Molecules are shown by their SMILES. Like-named read-outs stand apart in the source and are kept apart here.

Series [1] has as its system Aedes aegypti mosquitoes. Put plainly: Olfactometer vapor phase repellency. The format is in vivo. The following applies: FIG. 1. From the text: As frequently seen in homologous series of insect repellents (Skinner, W. A. and Johnson, H. L. The design of insect repellents. In: Drug Design, Vol. 10, E J Ariens, Ed., Academic Press, New York, pp. 277-305, 1980), activity at lower chain length is limited by lack of persistence due to high volatility. Activity at higher chain length is limited by lack of volatility, as mosquito repellents are required to have a minimum effective evaporation rate (Reifenrath, W. G. and Robinson, P. B. In Vitro Skin Evaporation and Penetration Characteristics of mosquito repellents. J. Pharm. Sci, 71:1014-1018, 1982; Reifenrath, W. G. and Spencer, T. S. Evaporation and penetration from skin. In: Percutaneous Absorption Mechanisms Methodology Drug Delivery, R L Bronaugh and H I Maibach, Eds., 1st Ed., Marcel Dekker, New York, pp. 305-325, 1985).
The straight chain fatty acids octanoic, nonanoic, decanoic, undecanoic, and lauric are designated as C8 through C12, respectively; 3-methylpentanoic acid as 3MPENTAN, 3-methyl-2-pentenoic acid as 3M2PENTEN, 2-octenoic acid as 2OCTEN, 3-methyl-2-octenoic acid as 3M2OCTEN, and 4-methyloctanoic acid as 4MOCTAN. N,N-Diethyl-m-toluamide is designated as DEET.

The test system of another series is eggs of Aedes aegypti. Conditions: Cline 1972; cited from earlier work.
In the next series the test system is house fly larvae. Conditions: Levinson and Simon Ascher 1954; cited from earlier work.
In series [2] the test system is Aedes aegypti mosquitoes. The procedure:
Fifteen female Aedes aegypti mosquitoes were placed in the dishes and their fate observed over a 48 hour period.
To further investigate the incapacitating and lethal effect of the C8910 composition, water dispersions of the same formulation of C8910 were tested in the laboratory against Aedes aegypti mosquitoes. Graded dilutions of C8910/Kaolin-P were prepared by dispersing the powder in water (2 grams of powder in 100 ml of water, the concentration used in the field) where the lowest concentration was 0.0075% (Table 1). One ml of each dispersion was evenly pipetted over a disk of filter paper (9 cm diameter, Whatman No. 1) contained in disposable petri dishes. Approximately 15 female Aedes aegypti mosquitoes, 6-10 days of age, were placed in the Petri dishes and covered to prevent mosquito escape. The dishes were maintained in an environmental chamber (76-80° F. and approximately 60% humidity) and observations were made of incapacitation and mortality at various times after treatments (Table 1).

The subject of the next series is Aedes aegypti. Put plainly: Minimum effective dose to repel mosquitoes, applied to the skin. The format is in vivo. As for the experimental part:
Notes: • 1. Even at the lowest dose (1.18 ug/cm2), there are behavioral effects from […]. […] After 16 minutes exposure, mosquitoes were transferred to fresh plates containing only distilled water. […] […] and DEET (N,N-diethyl-m-toluamide) have similar potencies to repel Aedes aegypti when both are applied to the skin. The minimum effective dose (MED) of […] to repel mosquitoes is estimated at 25 ug/cm^2, the measured MED value for DEET.

For series [3], the system named is Aedes aegypti instar IV larvae and pupae. The following applies: Quraishi and Thorsteinson 1965; cited from earlier work.
For series [4] the following is noted: emulsion formulations; cited from earlier work.
The conditions of series [5]: 20° C.; cited from earlier work.
The mark [6] stands for this setting: 0.3000% in water dispersion, dose 47 ug/cm2.

As to `CCCCCCCC(=O)O` [C8, octanoic acid], the repellency in olfactometer entry with Aedes aegypti mosquitoes [1] is reported as “at or near the top of the repellency”. For the same compound, the ovicidal activity entry in the series on eggs of Aedes aegypti is listed as “ovicidal activity”.

Consider `C=CCCCCCCCCC(=O)O` [undecylenic], for which the ovicidal activity entry in the series with eggs of Aedes aegypti was “ovicidal activity”.

Consider `CCN(CC)CC(=O)Nc1c(C)cccc1C` [lidocaine free base, lidocaine], for which the fly incapacitation entry in the series on flies (freshly prepared aqueous emulsions 47 ug/cm^2 or 15% concentration in mineral oil) was “did not cause fly incapacitation”.

As to `CCCCCCCCCCC(=O)O` [undecanoic acid], the “larvicidal activity for housefly larvae” value with house fly larvae is given as “declining activity”.

On to `CCN(CC)C(=O)c1cccc(C)c1` [DEET, N,N-diethyl-m-toluamide], for which, in the series on Aedes aegypti mosquitoes [2] (47 ug/cm^2), the immediate incapacitation result is recorded as “did not involve immediate incapacitation”; the “mortality at 24 hours” value is “did cause fly and mosquito mortality”. Also, the “minimum effective dose (MED) to repel mosquitoes” value with Aedes aegypti is listed as 25 ug/cm^2. In addition, in the series on flies (47 ug/cm^2), the immediate incapacitation result is listed as “did not involve immediate incapacitation”; the “mortality at 24 hours” value was “did cause fly and mosquito mortality”.

With `CCCCCCCCCC(=O)O` [C10, decanoic acid], the repellency in olfactometer result in the series on Aedes aegypti mosquitoes [1] was “at or near the top of the repellency”.

As for `CCCCCCCCCCCC(=O)O` [Lauric acid, lauric acid], the toxicity to flies entry with flies (EC formulation) is given as “non-toxic”. Also, in the series with house fly larvae, the “larvicidal activity for housefly larvae” value was “declining activity”. In [3], the “toxicity to instar IV larvae and pupae” value is on record as “not”.

For `CC(O)C(=O)O` (stereo not shown) [Lactic Acid, lactic acid], in the series with Aedes aegypti mosquitoes [2] (setting [6]), the “% Incapac. in 10 m exp.” value is 0%, the “% Incapac. in 25 m exp.” value came out at 0%, the “% Incapac. in 24 h exp.” value amounted to 17% and the “% motality at 24 hours” value came out at 17%. Further, the “% motality at 48 hours” value in the series on Aedes aegypti mosquitoes [2] (setting [6]) was determined as 17%. Further, in the series on Aedes aegypti mosquitoes [2] (0.3000% in water dispersion, dose 47 ug/cm2, listed as lactic acid), the “% Incapac. in 10 m exp.” value is listed as “no incapacitation”. For the same compound, in the series with Aedes aegypti mosquitoes [2] (0.3000%, dose 47 ug/cm2), the “number dead, noted beside % Incapac. in 24 h exp.” value is reported as “(2 dead)”. Also, in the series on flies (test of acidic pH), the toxicity to flies entry is “nontoxic to flies”.

For the compound `CC1(C)C(C=C(Cl)Cl)C1C(=O)OCc1cccc(Oc2ccccc2)c1` (stereo not shown) [permethrin], the reversibility of incapacitation result in the series with Aedes aegypti mosquitoes [2] (dose of 4.7 ug/cm^2) and in the series with flies (dose of 4.7 ug/cm^2) was “irreversible” in each case. Further, the skin absorption entry in series [4] is “about 30%”. Further, in [5], the vapor pressure result is given as “about 10^−8 mm Hg”.

With `CCCCCCCCC(=O)O` [C9, nonanoic acid], the repellency in olfactometer result in the series with Aedes aegypti mosquitoes [1] was “at or near the top of the repellency”. For the same compound, in the series on eggs of Aedes aegypti, the ovicidal activity entry is “ovicidal activity”.

Values taken from US9545100B2, “Pesticidal compositions for insects and arthropods” (Stratacor, Inc., priority 2009, dated 2017).
